“And” between values parts separate entries of the source, which are not always exact repeats. Equal entries are not always repeated.
Key:
[1] = Lipophilicity by shake-flask method (7.4-buffered PBS / n-octanol); format: physicochemical; conditions: 7.4-buffered PBS solution and n-octanol
Protocol: The lipophilicity of the iridium complexes was measured by the shake-flask method using 7.4-buffered PBS and n-octanol as solvents (Table 2). The values range between 1.49 and 2.68 are typical for cyclometalated iridium complexes that have not been bioconjugated. […] In general, neutral complexes have log D7.4 values above 2.00 and there is an increased in lipophilicity of extending the tetrazolato ligand with the addition of a phenyl spacer in [Ir(ppy)2(TzPyPhCN)], or by extending the conjugation on passing from pyridine to quinoline or isoquinoline for [Ir(ppy)2(TzQn)] and [Ir(ppy)2(TziQn)]. Methylation in all cases reduces lipophilicity to log D7.4 values […], with the same trend within the family of methylated complexes as previously observed for the neutral ones.

[2] = test system: H9c2 rat cardiomyoblast cells; test: Staining and co-staining of live H9c2 cells, confocal and two-photon microscopy; format: cell-based
Protocol: Live H9c2 rat cardiomyoblasts were incubated with the iridium complexes for 30 minutes. Complexes were made to a final concentration of 20 μM in the cell culture medium with DMSO concentration <0.2%. Under these conditions, the luminescence from the iridium complexes within the cells was detected via confocal microscopy under single-photon excitation (403 nm) or two-photon excitation (810-840 nm).
To determine the localisation of the iridium complexes, co-staining experiments were carried out with the use of ER-Tracker™ Red (endoplasmic reticulum), LysoTracker® Red DND-99 (acidic compartments), MitoTracker® Red (mitochondria), BODIPY® 500/510 C1, C12(fatty acid) or β-BODIPY® FL HPC (phospholipids). […] This difference was also in agreement with the trend of the quantum yield data illustrated before and detection of internalised complex by ICP-MS.
H9c2 rat cardiomyoblast cell line was a kind gift from Professor Janna Morrison (University of South Australia). The H9c2 cells were maintained in high-glucose (4500 mg/L) DMEM medium (Sigma-Aldrich, USA) containing 10% fetal bovine serum (FBS; In Vitro Technologies, USA) and 2 mM L-glutamine (Sigma-Aldrich, USA) at 37° C. and 5% CO2. The H9c2 cells were cultured in […] flasks, and cells (1×10^6 cells/mL) that had been passaged, from two up to five times were used for experiments. For live cell imaging and MTS assay, the H9c2 cells (1×10^5 cells/mL) were cultured overnight in either ibidi μ-Slide 8 wells in a final volume of 250 μL or 96-well microtiter plate in a final volume of 200 μL in absence of Ir-based molecular probes.
The H9c2 cells were incubated with 20 μM of Ir-based molecular probes for 30 minutes in FBS-free media (300 μL) at 37° C. and 5% CO2. These cells were washed twice with phosphate buffered saline (PBS) and once with FBS-free media, and then co-stained with either ER-Tracker™ Red (BODIPY® TR Glibenclamide), LysoTracker® Red DND-99, MitoTracker® Red CMXRos (1H,5H,11H,15H-Xantheno[2,3,4-ij:5,6,7-i′j′]diquinolizin-18-ium, 9-[4-(chloromethyl)phenyl]-2,3,6,7,12,13,16,17-octahydro-, chloride), β-BODIPY® FL C5-HPC (2-(4,4-Difluoro-5,7-Dimethyl-4-Bora-3a,4a-Diaza-s-Indacene-3-Pentanoyl)-1-Hexadecanoyl-sn-Glycero-3-Phosphocholine) or BODIPY® 500/510 C1, C12 (4,4-Difluoro-5-Methyl-4-Bora-3a,4a-Diaza-s-Indacene-3-Dodecanoic Acid), which were obtained from Life Technologies Australia Pty Ltd, Australia. Cell biology analysis was carried out with a minimum of two experimental groups. Imaging analysis was performed using a Nikon A1+ confocal microscope equipped with 403 nm, 488 nm, 561 nm and 640 nm solid-state lasers (Nikon, Japan) and OKOLab Microscope Incubator (Okolab USA Inc., USA). The final preparation of the images was conducted with Adobe Photoshop CC (Adobe Systems Inc., USA).
The H9c2 cells were incubated with 20 μM of Ir-based molecular probes for 30 minutes in FBS-free media (300 μL) at 37° C. and 5% CO2. These cells then were washed with phosphate buffered saline (PBS) and imaged using Zeiss LSM710 META NLO inverted microscope supplemented with a two-photon Mai-Tai®, tunable Ti:Sapphire femtosecond pulse laser (710-920 nm, Spectra-Physics). Fluorescence of Ir-based molecular probes was detected using the following settings: two-photon excitation wavelength 830 nm, beam splitter MBS 690+, emission interval 520-650 nm. The H9c2 cells were exposed to two-photon illumination between 810-840 nm. A continuum of lambda stack images was captured across the emission spectrum 416-728 nm. The images were acquired using a Plan-APOCHROMAT 63X/NA1.4 oil immersion objective. The final preparation of the images was conducted with Adobe Photoshop CC (Adobe Systems Inc., USA).

[3] = Photophysical measurements (absorption, emission, lifetime, quantum yield) in diluted solutions; format: physicochemical; conditions: for Emission λem / τaer, excited state lifetime (relative weight in parentheses) / τdeaer, excited state lifetime (relative weight in parentheses): 298K; for Φaer, quantum yield / Φdeaer, quantum yield: versus Ru(bpy)3^2+ in water (φr = 0.028); for τdeaer, excited state lifetime (relative weight in parentheses) / Φdeaer, quantum yield: deaerated; for knr: calculated as [(1 − φ)/τ] from deaerated solutions; for kr: calculated as [φ/τ] from deaerated solutions; for Φ, quantum yield: versus Ru(bpy)3^2+ in water
Excerpt: A summary of the photophysical data for the complexes as diluted solutions (10^−5 M) in dichloromethane, water, PBS, lysosomal fluid solution, and ethyl laurate is reported in Table 1. All the listed aqueous media also contain 0.1% DMSO to favour the solubilisation of the complexes. The various solvents have been chosen to identify potential modulations on the photophysical behaviour of the iridium complexes in diverse cellular environments such as cytoplasm, endosome/lysosomes acidic organelles, or lipid-rich compartments like membranes, endoplasmic reticulum, and lipid droplets. In general, the photophysical characteristics were measured in aerated solutions to take into account the presence of oxygen in live cells. On the other hand, dichloromethane solutions were compared as aerated and degassed to confirm oxygen sensitivity and triplet character of the excited states of the complexes.
Absorption spectra were recorded at room temperature using a Cary 4000 UV/Vis spectrometer. Uncorrected steady state emission and excitation spectra were recorded on an Edinburgh FLSP980-S2S2-stm spectrometer equipped with: i) a temperature-monitored cuvette holder; ii) 450 W Xenon arc lamp; iii) double excitation and emission monochromators; iv) a Peltier cooled Hamamatsu R928P photomultiplier tube (spectral range 200-870 nm). Emission and excitation spectra were corrected for source intensity (lamp and grating) and emission spectral response (detector and grating) by a calibration curve supplied with the instrument. According to the approach described by Demas and Crosby, luminescence quantum yields (Φem) were measured in optically dilute solutions (O.D.<0.1 at excitation wavelength) obtained from absorption spectra on a wavelength scale [nm] and compared to the reference emitter by the following equation: […]
where A is the absorbance at the excitation wavelength (λ), I is the intensity of the excitation light at the excitation wavelength (λ), n is the refractive index of the solvent, D is the integrated intensity of the luminescence and Φ is the quantum yield. The subscripts r and x refer to the reference and the sample, respectively. The quantum yield determinations were performed at identical excitation wavelength for the sample and the reference, therefore cancelling the I(λr)/I(λx) term in the equation. The quantum yields of complexes were measured against Rubipy in water (Φr=0.028). Emission lifetimes (z) were determined with the time correlated single photon counting technique (TCSPC) with the same Edinburgh FLSP980-S2S2-stm spectrometer using either a pulsed picosecond LED (EPLED/EPL 377 nm, FHWM<800 ps) or a microsecond flashlamp. The goodness of fit was assessed by minimising the reduced χ^2 function and by visual inspection of the weighted residuals. The solvents used for the preparation of the solutions for the photophysical investigations were of LR grade and the water was deionised. Degassing of the dichlorometane solutions was performed using the freeze-pump-thaw method. Experimental uncertainties are estimated to be ±8% for lifetime determinations, ±20% for quantum yields, ±2 nm and ±5 nm for absorption and emission peaks, respectively.

Row | Emission λem ([3]; DCM, 10^−5 M) [nm] | Φaer, quantum yield ([3]; DCM, aerated) | Φdeaer, quantum yield ([3]; DCM) | logD7.4, distribution coefficient [1] | SMILES | logD ([1]; pH 7.4, read-out: logD7.4, distribution coefficient) | cellular localisation (co-staining) ([2]; live H9c2, 20 μM, 30 minutes) | emission profile from cells ([2]; live H9c2, one-photon or two-photon excitation) | Absorption λabs [nm] (10^4ε [M^−1cm^−1]) ([3]; DCM, 10^−5 M) | τaer, excited state lifetime (relative weight in parentheses) ([3]; DCM, aerated) [ns] | τdeaer, excited state lifetime (relative weight in parentheses) ([3]; DCM) [ns] | knr ([3]; DCM) | kr ([3]; DCM) | Absorption λabs [nm] (10^4ε [M^−1cm^−1]) ([3]; H2O with 0.1% DMSO, 10^−5 M) | Emission λem ([3]; H2O with 0.1% DMSO, aerated) [nm] | Φ, quantum yield ([3]; H2O with 0.1% DMSO, aerated) | emission detected from stained cells ([2]; live H9c2, 20 μM, 30 minutes) | emission in the various solvents ([3]; dichloromethane, water, PBS, lysosomal fluid, ethyl laurate)
1 | 542 | 0.042 | 0.406 | 2.01 ± 0.05 | N#Cc1ccc2[n+](c1)[Ir]13([c]4cc(F)cc(F)c4-c4cccc[n+]41)([c]1cc(F)cc(F)c1-c1cccc[n+]13)[n]1nnnc1-2 [[Ir(F2ppy)2(TzPyCN)]] | – | – | – | – | 140 | 697 | 0.852 10^6s^−1 | 5.825 10^5s^−1 | 256 (4.83) nm (10^4ε [M^−1cm^−1]) and 302 (3.36) nm (10^4ε [M^−1cm^−1]) and 366 (1.16) nm (10^4ε [M^−1cm^−1]) | 552 | 0.057 | – | –
2 | 680 | 0.012 | 0.014 | – | C[n+]1nc2[n](n1)[Ir]13([c]4ccccc4-c4cccc[n+]41)([c]1ccccc1-c1cccc[n+]13)[n+]1cc(C#N)ccc1-2 [[Ir(ppy)2(MeTzPyCN)]^+] | – | – | – | – | – | – | – | – | – | – | – | no emission was detected from stained cells | appreciable emission only in dichloromethane solution

Row | SMILES | Emission λem ([3]; DCM, 10^−5 M) [nm] | Φaer, quantum yield ([3]; DCM, aerated) | Φdeaer, quantum yield ([3]; DCM) | logD7.4, distribution coefficient [1] | logD ([1]; pH 7.4, read-out: logD7.4, distribution coefficient) | cellular localisation (co-staining) ([2]; live H9c2, 20 μM, 30 minutes) | emission profile from cells ([2]; live H9c2, one-photon or two-photon excitation) | Absorption λabs [nm] (10^4ε [M^−1cm^−1]) ([3]; DCM, 10^−5 M) | τaer, excited state lifetime (relative weight in parentheses) ([3]; DCM, aerated) [ns] | τdeaer, excited state lifetime (relative weight in parentheses) ([3]; DCM) [ns] | knr ([3]; DCM) | kr ([3]; DCM) | Absorption λabs [nm] (10^4ε [M^−1cm^−1]) ([3]; H2O with 0.1% DMSO, 10^−5 M) | Emission λem ([3]; H2O with 0.1% DMSO, aerated) [nm] | Φ, quantum yield ([3]; H2O with 0.1% DMSO, aerated) | emission detected from stained cells ([2]; live H9c2, 20 μM, 30 minutes) | emission in the various solvents ([3]; dichloromethane, water, PBS, lysosomal fluid, ethyl laurate)
3 | C[n+]1nc2[n](n1)[Ir]13([c]4cc(F)cc(F)c4-c4cccc[n+]41)([c]1cc(F)cc(F)c1-c1cccc[n+]13)[n+]1cc(C#N)ccc1-2 [[Ir(F2ppy)2(MeTzPyCN)]^+] | 600 | 0.057 | 0.188 | – | 1.86 ± 0.02 | staining pattern consistent with mitochondrial localisation | blue-shifted and almost superimposable bands between these cationic complexes and their neutral analogues | 250 (3.56) nm (10^4ε [M^−1cm^−1]) and 316 (1.28) nm (10^4ε [M^−1cm^−1]) and 356 (0.58) nm (10^4ε [M^−1cm^−1]) | 287 | 551 | 1.601 10^6s^−1 | 2.142 10^5s^−1 | 260 (4.12) nm (10^4ε [M^−1cm^−1]) and 309 (1.55) nm (10^4ε [M^−1cm^−1]) and 353 (0.66) nm (10^4ε [M^−1cm^−1]) | 636 | 0.005 | – | –

From patent publication US20190226949A1, “IRIDIUM COMPLEXES FOR CELLULAR IMAGING” (UNIVERSITY OF SOUTH AUSTRALIA, priority 2016, published 2019)
